# How the values were obtained:
# [1] = target: T1, rhesus H3 receptor (Macaca mulatta, UniProt Q865E1); assay: Rhesus H3 [3H]-methylhistamine radioligand binding assay; parameters: species or system rhesus monkey (Macacca Mulatta); details: [3H]-Methylhistamine 2 nM, rhesus H3 membranes, WGA SPA beads, Cheng-Prusoff
# Procedure: (§1) Rhesus H3 membranes were prepared from the Flp-In T-REx 293 Cell Line (Invitrogen) stably transfected with pcDNA5/FRT/TO (Invitrogen) containing the rhesus monkey (Macacca Mulatta) 445 amino acid H3 receptor. (Genbank #AY231164). Stably transfected cultures were amplified in tissue culture flasks by standard tissue culture methods and induced to express rhesus H3 by exposure to 500 ng/ml tetracycline (Cellgro) for 24 hours. After induction, cells were dissociated from flasks utilizing Cell Stripper (Cellgro). Cells were centrifuged (1K×g, 5 min) and pellet frozen in an ethanol-dry ice bath to disrupt cell membranes. Frozen cell pellet was re-suspended in 5 mM HEPES (pH 7.4, Invitrogen) at 10 ml/1000 cm2 of harvested cells. The cell suspension was drawn through an 18 gauge needle (2-3×) followed by a 23 gauge needle (2-3×) to further disrupt cell membranes. The cell suspension was centrifuged (40K×g, 30 min). Cell membrane pellet was re-suspended in 5 mM HEPES (pH 7.4, Invitrogen) at a final protein concentration of 10 mg/ml. Rhesus H3 membranes were stored under liquid nitrogen prior to use in [3H]-Methylhistamine and GTP S radioligand binding assays.
# Rhesus H3 radioligand binding assay was performed using rhesus H3 receptor membranes (prepared as described above), [3H]-Methylhistamine (Perkin Elmer) and WGA SPA beads (wheat germ agglutinin scintillation proximity assay) beads (Amersham). The assay was performed in 96-well Opti-Plates (Packard). Each reaction contained 50 μl rhesus H3 membranes (20-30 μg total protein), 50 μl WGA SPA beads (0.1 μg) and 50 μl of 83 Ci/mmol [^3H]-Methylhistamine (final concentration 2 nM) and 50 μl of tested compound. The compounds of this invention and/or vehicle were diluted with binding buffer from 10 mM DMSO stocks. Assay plates were sealed with TopSeal (Perkin Elmer) and mixed on shaker (25° C., 1 hour). Assay plates were read on TopCount scintillation counter (Packard). Results were analyzed by Hill transformation and Ki values were determined by Cheng-Prusoff equation.
# [2] = target: T1, rhesus H3 receptor; assay: GTPγS radioligand binding assay, inhibition of rhesus H3 constitutive functional activity (inverse agonism); assay type: biochemical, rhesus monkey (Macacca Mulatta); parameters: concentration or dose not given beside the values; details: rhesus H3 cell membranes, relative to basal levels
# Procedure: as §1
# T1 sequence (Q865E1 1-445): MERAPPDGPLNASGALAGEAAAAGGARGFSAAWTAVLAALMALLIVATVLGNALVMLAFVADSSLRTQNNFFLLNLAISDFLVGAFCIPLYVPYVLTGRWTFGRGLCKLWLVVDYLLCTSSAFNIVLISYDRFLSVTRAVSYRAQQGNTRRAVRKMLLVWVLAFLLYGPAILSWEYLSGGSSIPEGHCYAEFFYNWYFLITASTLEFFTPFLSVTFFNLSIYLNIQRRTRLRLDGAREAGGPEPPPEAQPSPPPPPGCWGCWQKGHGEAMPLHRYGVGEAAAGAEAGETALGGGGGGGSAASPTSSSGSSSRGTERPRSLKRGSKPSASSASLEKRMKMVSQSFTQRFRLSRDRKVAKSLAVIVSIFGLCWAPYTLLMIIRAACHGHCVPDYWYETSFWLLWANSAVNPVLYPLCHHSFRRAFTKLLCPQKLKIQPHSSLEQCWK
SMILES,Ki [1] [nM],Inverse Agonism: % inhibition of Basal GTPγS binding in Rhesus H3 [2] [%]
"Cc1cc(N2CC[C@H](N3CCC[C@H]3C)C2)ccc1N1CCC2(CCN(C(=O)OC(C)(C)C)CC2)C1=O [Example 1, 2-[2-Methyl-4-((2R,3′S)-2-methyl-[1,3′]bipyrrolidinyl-1′-yl)-phenyl]-1-oxo-2,8-diaza-spiro[4.5]decane-8-carboxylic acid tert-butyl ester]",132,−24
"Cc1cc(N2CC[C@@H](N3CCC[C@H]3C)C2)ccc1N1CCC2(CCN(C(=O)OC(C)(C)C)CC2)C1=O [Example 2, 2-[2-Methyl-4-((2R,3′R)-2-methyl-[1,3′]bipyrrolidinyl-1′-yl)-phenyl]-1-oxo-2,8-diaza-spiro[4.5]decane-8-carboxylic acid tert-butyl ester]",248,−30
"Cc1cc(N2CC[C@@H](N3CCC[C@@H]3C)C2)ccc1N1CCC2(CCN(C(=O)OC(C)(C)C)CC2)C1=O [Example 3, 2-[2-Methyl-4-((2S,3′R)-2-methyl-[1,3′]bipyrrolidinyl-1′-yl)-phenyl]-1-oxo-2,8-diaza-spiro[4.5]decane-8-carboxylic acid tert-butyl ester]",7,−23
"Cc1cc(N2CC[C@H](N3CCC[C@@H]3C)C2)ccc1N1CCC2(CCN(C(=O)OC(C)(C)C)CC2)C1=O [Example 4, 2-[2-Methyl-4-((2S,3′S)-2-methyl-[1,3′]bipyrrolidinyl-1′-yl)-phenyl]-1-oxo-2,8-diaza-spiro[4.5]decane-8-carboxylic acid tert-butyl ester]",43,−31
"Cc1cc(N2CCC(N3CCCC3C)C2)ccc1N1CCC2(CCN(C(=O)OC(C)(C)C)CC2)C1=O (stereo not shown) [Example 5, 2-[2-Methyl-4-(2-methyl-[1,3′]bipyrrolidinyl-1′-yl)-phenyl]-1-oxo-2,8-diaza-spiro[4.5]decane-8-carboxylic acid tert-butyl ester]",18,−13
"Cc1cc(N2CC[C@H](N3CCC[C@@H]3C)C2)ccc1N1CCC2(CCNCC2)C1=O [Example 6, 2-[2-Methyl-4-((2S,3′S)-2-methyl-[1,3′]bipyrrolidinyl-1′-yl)-phenyl]-2,8-diaza-spiro[4.5]decan-1-one]",11,−22
"Cc1cc(N2CC[C@@H](N3CCC[C@H]3C)C2)ccc1N1CCC2(CCNCC2)C1=O.Cl [Example 7, 2-[2-Methyl-4-((2R,3′R)-2-methyl-[1,3′]bipyrrolidinyl-1′-yl)-phenyl]-2,8-diaza-spiro[4.5]decan-1-one Hydrochloride]",15,−22
"Cc1cc(N2CC[C@H](N3CCC[C@H]3C)C2)ccc1N1CCC2(CCNCC2)C1=O.Cl [Example 8, 2-[2-Methyl-4-((2R,3′S)-2-methyl-[1,3′]bipyrrolidinyl-1′-yl)-phenyl]-2,8-diaza-spiro[4.5]decan-1-one Hydrochloride]",0.8,−26
"Cc1cc(N2CC[C@@H](N3CCC[C@@H]3C)C2)ccc1N1CCC2(CCNCC2)C1=O.Cl [Example 9, 2-[2-Methyl-4-((2S,3′R)-2-methyl-[1,3′]bipyrrolidinyl-1′-yl)-phenyl]-2,8-diaza-spiro[4.5]decan-1-one Hydrochloride]",0.6,−35
"Cc1cc(N2CC[C@H](N3CCC[C@H]3C)C2)ccc1N1CCC2(CCN(CC3CCCC3)CC2)C1=O [Example 10, 8-Cyclopentyl methyl-2-[2-methyl-4-((2R,3′S)-2-methyl-[1,3′]bipyrrolidinyl-1′-l)-phenyl]-2,8-diaza-spiro[4.5]decan-1-one]",12,−26
"Cc1cc(N2CC[C@@H](N3CCC[C@H]3C)C2)ccc1N1CCC2(CCN(CC3CCCC3)CC2)C1=O [Example 11, 8-Cyclopentylmethyl-2-[2-methyl-4-((2R,3′R)-2-methyl-[1,3′]bipyrrolidinyl-1′-l)-phenyl]-2,8-diaza-spiro[4.5]decan-1-one]",22,−29
"Cc1cc(N2CC[C@@H](N3CCC[C@@H]3C)C2)ccc1N1CCC2(CCN(CC3CCCC3)CC2)C1=O [Example 12, 8-Cyclopentylmethyl-2-[2-methyl-4-((2S,3′R)-2-methyl-[1,3′]bipyrrolidinyl-1′-l)-phenyl]-2,8-diaza-spiro[4.5]decan-1-one]",0.8,−20
"Cc1cc(N2CC[C@H](N3CCC[C@@H]3C)C2)ccc1N1CCC2(CCN(CC3CCCC3)CC2)C1=O [Example 13, 8-Cyclopentylmethyl-2-[2-methyl-4-((2S,3′S)-2-methyl-[1,3′]bipyrrolidinyl-1′-l)-phenyl]-2,8-diaza-spiro[4.5]decan-1-one]",0.8,−37
"Cc1cc(N2CCC(N3CCCC3C)C2)ccc1N1CCC2(CCN(CC3CCCC3)CC2)C1=O (stereo not shown) [Example 14, 8-Cyclopentylmethyl-2-[2-methyl-4-(2-methyl-[1,3′]bipyrrolidinyl-1′-l)-phenyl]-2,8-diaza-spiro[4.5]decan-1-one]",5.6,−31
"Cc1cc(N2CC[C@H](N3CCC[C@H]3C)C2)ccc1N1CCC2(CCN(C(=O)c3ccc(OC(F)(F)F)cc3)CC2)C1=O [Example 15, 2-[2-Methyl-4-((2R,3′S)-2-methyl-[1,3′]bipyrrolidinyl-1′-yl)-phenyl]-8-(4-trifluoromethoxy-benzoyl)-2,8-diaza-spiro[4.5]decan-1-one]",118,−14
"Cc1cc(N2CC[C@@H](N3CCC[C@H]3C)C2)ccc1N1CCC2(CCN(C(=O)c3ccc(OC(F)(F)F)cc3)CC2)C1=O [Example 16, 2-[2-Methyl-4-((2R,3′R)-2-methyl-[1,3′]bipyrrolidinyl-1′-yl)-phenyl]-8-(4-trifluoromethoxy-benzoyl)-2,8-diaza-spiro[4.5]decan-1-one]",100,−13
"Cc1cc(N2CC[C@@H](N3CCC[C@@H]3C)C2)ccc1N1CCC2(CCN(C(=O)c3ccc(OC(F)(F)F)cc3)CC2)C1=O [Example 17, 2-[2-Methyl-4-((2S,3′R)-2-methyl-[1,3′]bipyrrolidinyl-1′-yl)-phenyl]-8-(4-trifluoromethoxy-benzoyl)-2,8-diaza-spiro[4.5]decan-1-one]",1.4,−9
"Cc1cc(N2CCC(N3CCCC3C)C2)ccc1N1CCC2(CCN(C(=O)c3ccc(OC(F)(F)F)cc3)CC2)C1=O (stereo not shown) [Example 18, 2-[2-Methyl-4-(2-methyl-[1,3′]bipyrrolidinyl-1′-yl)-phenyl]-8-(4-trifluoromethoxy-benzoyl)-2,8-diaza-spiro[4.5]decan-1-one]",6.2,−10
"Cc1cc(N2CC[C@H](N3CCC[C@@H]3C)C2)ccc1N1CCC2(CCN(C(=O)c3ccc(OC(F)(F)F)cc3)CC2)C1=O [Example 19, 2-[2-Methyl-4-((2S,3′S)-2-methyl-[1,3′]bipyrrolidinyl-1′-yl)-phenyl]-8-(4-trifluoromethoxy-benzoyl)-2,8-diaza-spiro[4.5]decan-1-one]",1.4,−19
"Cc1cc(N2CC[C@H](N3CCC[C@@H]3C)C2)ccc1N1CCCC2(CCN(C(=O)OC(C)(C)C)CC2)C1=O [Example 20, 2-[2-Methyl-4-((2S,3′S)-2-methyl-[1,3′]bipyrrolidinyl-1′-yl)-phenyl]-1-oxo-2,9-diaza-spiro[5.5]undecane-9-carboxylic acid tert-butyl ester]",6.8,−18
"C[C@H]1CCCN1[C@H]1CCN(c2ccc(N3CCCC4(CCN(C(=O)OC(C)(C)C)CC4)C3=O)cc2)C1 [Example 21, 2-[4-((2S,3′S)-2-Methyl-[1,3′]bipyrrolidinyl-1′-yl)-phenyl]-1-oxo-2,9-diaza-spiro[5.5]undecane-9-carboxylic acid tert-butyl ester]",7.3,−28
"C[C@H]1CCCN1C1CCN(c2ccc(N3CCC4(CCN(C(=O)OC(C)(C)C)CC4)C3=O)c(F)c2)CC1 [Example 40, 2-{4-[4-(2S-2-Methyl-pyrrolidin-1-yl)-piperidin-1-yl]-2-fluoro-phenyl}-1-oxo-2,8-diaza-spiro[4.5]decane-8-carboxylic acid tert-butyl ester]",–,−21
